Test results taken from patent EP4763841A1, “PYRIDAZINONE COMPOUND AND USE THEREOF” (Xi'an Xintong Pharmaceutical Research Co., Ltd., priority 2023, dated 2025).
Marks after values point to notes of the source that are not given here.

What was measured:
THRα = THRα (Homo sapiens, UniProt P10827); experiment: HTRF test of agonist-induced SRC3-2 coactivator peptide recruitment to THRα-LBD; assay type: biochemical
Protocol: (§1) 1. Experiment of binding of compounds to THRβ and THRα
(§2) Test principle: The effect of test compounds on THRβ and THRα was tested by using a method of HTRF. An MAb Anti GST-Eu cryptate antibody binds to GST-tagged THRα-LBD (or THRβ-LBD), while Streptavidin-XL665 binds to a biotin-labeled SRC3-2 coactivator peptide. […] At the same time, the resulting decrease in the distance between XL665-labeled SRC3-2 and an Eu-anti-GST antibody increases a THRFRET signal. The agonistic capacity at this target was assessed by the effect of compounds on the activity of THRα-LBD (THRβ-LBD) at different concentrations.
(§3) • (1) a 1×reaction solution was prepared. • (2) Preparation of compounds: the compound test starting concentration was 20 µM, 3-fold dilution was performed, 10 concentrations were set, and duplicate testing was set for each concentration. 100-fold dilution was performed in a 384-well Source plate to a corresponding solution with a final concentration, and then 200 nL of the solution was transferred to a 384-well reaction plate with Echo550 to be tested. 200 nL of 100% DMSO and a test article were respectively transferred to Min and Max wells. • (3) A 2×protein solution was prepared from the 1×reaction solution. • (4) A 4×SRC3-2 solution was prepared from the 1×reaction solution. • (5) A mixed solution of 4×GST-Eu cryptate and XL665 was prepared from the 1×reaction solution. • (6) 10 µl of the 2×protein solution was added to each well of the reaction plate, centrifugation was performed at 1000 rpm for 1 min, and incubation was performed at room temperature for 30 min. • (7) 5 µl of the 4×SRC3-2 solution was added to each well of the reaction plate, and centrifugation was performed at 1000 rpm for 1 min. • (8) 5 µL of the mixed solution of 4×GST-Eu cryptate and XL665 was added to each well of the reaction plate, centrifugation was performed at 1000 rpm for 1 min, and incubation was performed at 25°C. • (9) A fluorescence signal was read by using EnVision.
THRα test procedures were the same as above.

THRβ = molecular target: T1, THRβ (Homo sapiens, UniProt P10828); experiment: HTRF test of agonist-induced SRC3-2 coactivator peptide recruitment to THRβ-LBD; assay type: biochemical
T1 sequence (P10828 217-461 limits assumed): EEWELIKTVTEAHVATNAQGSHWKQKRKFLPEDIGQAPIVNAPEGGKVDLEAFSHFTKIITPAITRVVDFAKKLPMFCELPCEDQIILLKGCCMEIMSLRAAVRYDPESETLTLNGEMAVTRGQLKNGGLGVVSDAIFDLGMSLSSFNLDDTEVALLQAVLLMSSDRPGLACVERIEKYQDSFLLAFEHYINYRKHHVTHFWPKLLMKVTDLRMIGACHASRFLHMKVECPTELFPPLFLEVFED
Protocol: as §1, §2
Test method: THRβ test procedures:
as §3

[1] = Comparison of compound metabolites by human liver microsome incubation (LC-MS/MS); assay type: in vitro ADME; details: 10 µM compound, human liver microsome 1.0 mg/mL, β-NADPH 1.0 mM, 37°C, 60 min
Protocol: The purpose of this experiment was to evaluate the comparison of the content of major metabolites of human liver microsome incubated compounds.
Sample treatment: a sample was precipitated with acetonitrile (ACN) containing 0.1% formic acid in a ratio of 1:2, and further centrifuged. A supernatant was dried with a nitrogen flow. A residue was reconstituted in […] of 10% ACN and 90% H2O containing 0.1% formic acid. […] of the reconstituted material was injected into an LC-MS/MS system for analysis.

NASH model of B-DIO mice = experiment: Efficacy test in NASH model of B-DIO mice (HFD + CCL4); assay type: in vivo; details: for area proportion of lipid droplets in the liver (oil red O) compared with the model group G2: Day 26, result in words (FIG. 8); for liver fibrosis (Sirius red) compared with the model group G2: Day 26, result in words (FIG. 9)
Description: An objective of this experiment was to evaluate the pharmacodynamics of compounds of the present invention by using an NASH model of B-DIO mice.
Five C57BL/6 mice on normal diet were assigned to an experimental group G1, and 25 B-DIO mice were randomly assigned to five experimental groups according to the body weight, with 5 mice in each group.
The day of grouping was Day-1, intraperitoneal injection was started on Day 0 in the groups G2-G6 for CCL4 modeling, the concentration of a modeling agent is 0.2 µl/g, the modeling frequency was twice a week, and administration was started on Day 0.
The body weight was measured twice a week after grouping. At the end of the experiment (Day 26), the mice were fasted for 4 h, and non-anticoagulated blood of the mice in the groups G1-G6 was collected and centrifuged, and a serum was taken for blood biochemical testing. Livers in the groups G1-G6 were collected and weighed, 20 mg of the liver was weighed for determination of TC and TG, and the remaining liver was placed in formalin for fixation for pathological observation.

[2] = liver, Day 26, 0.3 mg/kg I.G. Q.D., HFD+CCL4, mean±standard error
[3] = liver, Day 26, 1 mg/kg I.G. Q.D., HFD+CCL4, mean±standard error
[4] = liver, Day 26, 2 mg/kg I.G. Q.D., HFD+CCL4, mean±standard error
[5] = serum, Day 26, 1 mg/kg I.G. Q.D., HFD+CCL4, mean±standard error

Chain of THRα (P10827 148-410 isoform P10827-2 limits assumed, other chains not shown): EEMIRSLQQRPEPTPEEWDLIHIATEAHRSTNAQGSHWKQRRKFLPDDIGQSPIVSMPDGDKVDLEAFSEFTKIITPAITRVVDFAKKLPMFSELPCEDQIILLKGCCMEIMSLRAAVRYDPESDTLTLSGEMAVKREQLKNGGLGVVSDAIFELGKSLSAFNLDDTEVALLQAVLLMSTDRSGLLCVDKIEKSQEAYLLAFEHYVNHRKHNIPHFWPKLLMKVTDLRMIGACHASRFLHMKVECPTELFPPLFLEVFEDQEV

Compound: [2H]C([2H])([2H])C(c1c(C)c(Oc2c(Cl)cc(-n3nc(CF)c(=O)[nH]c3=O)cc2Cl)n[nH]c1=O)C([2H])([2H])[2H] [Compound 6]
- EC50 (THRα; HTRF, starting concentration 20 µM, 3-fold dilution, 10 concentrations, duplicate): > 5000 nM
- agonistic activity on THRα (THRα; result in words): weak agonistic activity on THRα
- EC50 (THRβ; HTRF, starting concentration 20 µM, 3-fold dilution, 10 concentrations, duplicate, read-out: THRβ (EC50)): 6.5 nM
- agonistic activity on THRβ compared with Resmetirom (THRβ; result in words): significantly better than that of Resmetirom
- selectivity of agonistic effect for THRβ over THRα (THRβ; result in words): selective agonistic effects on THRβ
- Monooxidized metabolite percent content (%) [1]: 3.0%
- Monooxidized metabolite percent content (%) ([1]; listed as compound 6): 3%
- area proportion of lipid droplets in the liver (oil red O) compared with the model group G2 (NASH model of B-DIO mice; G4, 0.3 mg/kg): decreased significantly
- liver fibrosis (Sirius red) compared with the model group G2 (NASH model of B-DIO mice; G4, 0.3 mg/kg): certain improvement effects on liver fibrosis
- effects of reducing liver fat accumulation and inhibiting liver fibroplasia compared with Resmetirom (G3) (NASH model of B-DIO mice; G4-G6 (0.3, 1, 2 mg/kg) versus Resmetirom 3 mg/kg, result in words): better effects of reducing liver fat accumulation and inhibiting liver fibroplasia than Resmetirom
- area proportion of lipid droplets in the liver (oil red O) compared with the model group G2 (NASH model of B-DIO mice; G5, 1 mg/kg): decreased significantly
- liver fibrosis (Sirius red) compared with the model group G2 (NASH model of B-DIO mice; G5, 1 mg/kg): certain improvement effects on liver fibrosis
- area proportion of lipid droplets in the liver (oil red O) compared with the model group G2 (NASH model of B-DIO mice; G6, 2 mg/kg): decreased significantly
- liver fibrosis (Sirius red) compared with the model group G2 (NASH model of B-DIO mice; G6, 2 mg/kg): certain improvement effects on liver fibrosis
- decrease of liver TC compared with the model group G2 (NASH model of B-DIO mice; group G4, 0.3 mg/kg, Day 26): 24.9%
- decrease of liver TG compared with the model group G2 (NASH model of B-DIO mice; group G6, 2 mg/kg, Day 26): 35.9%
- TC (NASH model of B-DIO mice; [2]): 46.76 ± 1.53 µmol/g
- TG (NASH model of B-DIO mice; [2]): 59.02 ± 2.79 µmol/g
- TC (NASH model of B-DIO mice; [3]): 46.35 ± 1.39 µmol/g
- TG (NASH model of B-DIO mice; [3]): 54.34 ± 2.45 µmol/g
- TC (NASH model of B-DIO mice; [4]): 44.99 ± 1.87 µmol/g
- TG (NASH model of B-DIO mice; [4]): 54.34 ± 3.54 µmol/g
- TG (NASH model of B-DIO mice; serum, Day 26, 0.3 mg/kg I.G. Q.D., HFD+CCL4, mean±standard error): 1.03 ± 0.06 mM
- ALT (U/L) (NASH model of B-DIO mice; [5]): 1080.58±88.36 U/L
- AST (U/L) (NASH model of B-DIO mice; [5]): 501.72±42.35* *** U/L
- TG (NASH model of B-DIO mice; [5]): 1.06 ± 0.07 mM
- TG (NASH model of B-DIO mice; serum, Day 26, 2 mg/kg I.G. Q.D., HFD+CCL4, mean±standard error): 1.06 ± 0.09 mM
